The target in assay [1] is T1, Human PTP1B (Homo sapiens, UniProt P18031).
T1 construct: His6 (N); made in house; host or cells: E. coli BL21 DE3
T1 sequence (P18031 1-435): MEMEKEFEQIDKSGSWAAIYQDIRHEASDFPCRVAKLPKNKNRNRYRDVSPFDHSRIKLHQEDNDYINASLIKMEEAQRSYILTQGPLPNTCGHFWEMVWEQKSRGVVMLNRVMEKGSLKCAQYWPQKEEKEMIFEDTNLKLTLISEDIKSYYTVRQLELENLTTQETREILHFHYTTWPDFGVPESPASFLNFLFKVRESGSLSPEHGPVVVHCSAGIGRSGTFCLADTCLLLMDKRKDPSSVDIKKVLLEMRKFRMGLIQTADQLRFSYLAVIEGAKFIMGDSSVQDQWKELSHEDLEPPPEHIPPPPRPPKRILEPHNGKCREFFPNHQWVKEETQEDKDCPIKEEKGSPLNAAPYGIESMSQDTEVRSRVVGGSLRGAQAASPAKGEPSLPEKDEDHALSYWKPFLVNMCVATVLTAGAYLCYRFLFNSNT
In words: In vitro phosphatase activity assay (DiFMUP assay). Format: biochemical. The text has this:
To determine the value of CHBOs in drug discovery, we constructed a synthetically accessible library of CHBOs based on the substrate scope of the reaction we newly developed. […] To explore the relationship between inhibitor activity of 3ak against PTP1B and the stereochemistry, two enantiomers (S, S)-3ak and (R, R)-3ak were synthesized and evalutated in the DiFUMP assay (Figure a). […]
Protein expression and purification7: Human PTP1B construct was subcloned into pET28a(+) vector, which contains an N-terminal His6-tag. BL21 DE3 E. coli cells were transformed as follows: 2 µL of plasmid(100 ng/µL) and 200 µL of DE3 cells were incubated for 30 min on ice, a 45 second heat shock at […], 2 min on ice, recovery with 800 µL SOC for 1 h at 37 ℃ followed by plating on a Kanamycin agar plate (50µg/mL).One colony was picked and used to inoculate 10 mL of LB media supplemented with kanamycin (50µg/mL).When the culture reached OD600 = 0.6, 10mL were transferred to one liter of LB media supplemented with Kanamycin (50 µg/mL) and grown at 37 ℃ to an OD600 = 0.6. Media is transferred to a 16 ℃ incubator. Then, the media was supplemented with 500 µM Isopropyl β-D-1-thiogalactopyranoside (IPTG) at OD600 = 0.8 and incubated for 16 h. Cells were centrifuged (4000 rpm, 20 min) and liquid was decanted. Cells were resuspended in lysis buffer (50 mM HEPES, pH 7.4, 150 mM KCl, 5 mM MgCl2, 5% glycerol, 1 mM phenylmethane sulfonyl fluoride (PMSF), 2 mM 2-mercaptoethanol (β-met)). Cells were lysed in a cell crusher (pressure 1000 bar), the mixed products were collected, centrifuged (12000 rpm, 4°C, 20 min), and the supernatant was left to discard the precipitate. The nickel column was first equilibrated with equilibration solution, and then the protein supernatant was up-sampled twice to bind the protein. The proteins were then gradually eluted with imidazole (10, 20, 60, 200 mM imidazole).
The target protein-containing fractions confirmed by SDS PAGE were placed in […] MWCO protein ultrafiltration tubes and the imidazole were replaced with dialysis buffer (20 mM HEPES, 150 mM KCl, 1 mM MgCl2). After the imidazole was removed cleanly, an equal volume of glycerol was added as a protective solution. When concentration was determined to be greater than or equal to 1 mg /mL, protein was frozen with liquid nit rogen. Protein was then stored in a -80 ℃ freezer.
In Vitro Phosphatase Activity Assays8:Incubate 1 nM purified PTP1B protein with positive control or compound to be tested in reaction buffer (25 mM Bis-Tris propane pH 7.5, […]
50 mM NaCl, 2 mM EDTA, 2 mM DTT) for 10 min at 37°C in a total volume of 90 μL. Add 10 μL of substrate buffer containing DiFMUP (final concentration of 10 μM) to the reaction buffer […]
The fluorescence intensity at 455 nm was read using a multifunctional reader with 358 nm as the excitation light, and the measured fluorescence value was used to calculate the inhibition rate of the enzyme activity by the sample over the value of the blank wells. The IC50 values of the compounds were calculated by Graphpad Prism 7.0, using a non-linear fit of the inhibition rate to the concentration of the inhibitor. […]

For assay [2], the system named is MB231 cells. In words: Cellular anti-cancer immunity assay (cancer cell growth inhibition with or without IFNγ, CCK8). Format: cell-based. As to conditions: MB231 cell line; 0.5 ng/ml IFNγ or medium alone; 3 days. From the text: We further evaluated (S, S)-3ak with a cellular anticancer immunity assay. The assay measures the inhibition of cancer cell growth by compounds with or without cytokine IFNγ. , The synergy of testing compounds and IFNγ in inhibiting cancer cells implicates the testing compound contributes anticancer immunity. The synergy index is defined by the formula index = (IC50 ^IFNγ– – IC50 ^IFNγ+)/IC50 ^IFNγ+. […] In other words, we identified (S, S)-3ak as a promising PTP1B inhibitor, preparing for the coming hit-lead-candidate optimization.
50 mM NaCl, 2 mM EDTA, 2 mM DTT) for 10 min at 37°C in a total volume of 90 μL. […] The fluorescence intensity at 455 nm was read using a multifunctional reader with 358 nm as the excitation light, and the measured fluorescence value was used to calculate the inhibition rate of the enzyme activity by the sample over the value of the blank wells. The IC50 values of the compounds were calculated by Graphpad Prism 7.0, using a non-linear fit of the inhibition rate to the concentration of the inhibitor. […]
Cellular anti-cancer immunity assay9: MB231 cells were seeded at a density of 5000 cells per well in a 96-well plate and incubated at 37 °C. […] PTP1B inhibitors, including Osunprotafib as the positive control, were added, and cell confluence was monitored for 3 days. […]

Where [3] appears, read: DiFMUP assay at room temperature, positive control ABBV-CLS-484, negative control DMSO.
Where [4] appears, read: DiFMUP assay at room temperature, positive control ABBV-CLS-484, negative control DMSO, read-out: PTP1B lC50.
Setting [5] is: PTP1B lC50 (μM), DiFMUP assay at room temperature, positive control ABBV-CLS-484, negative control DMSO.

SMILES strings stand for the structures. Read-outs that look alike come from different tables or passages of the source.

Regarding `CC1(C)[C@H]2CC=C(CCOC(=O)c3ccc(CN4C(=O)[C@](O)([C@H]5C=C(c6ccccc6)C(=O)O5)c5c(Br)cccc54)cc3)[C@@H]1C2` [6u], the “PTP1B lC50” value in assay [1] (setting [3]) amounted to 0.29 ± 0.02 µM.

For `O=C1O[C@@H]([C@@]2(O)C(=O)N(Cc3ccccc3)c3ccc(Cl)cc32)C=C1c1ccccc1` [6j], the “PTP1B lC50” value in assay [1] (setting [3]) worked out at 15.17 ± 1.02 µM.

Consider `COc1ccc2c(c1)N(Cc1ccccc1)C(=O)[C@]2(O)[C@H]1C=C(c2ccccc2)C(=O)O1` [6p], for which the “PTP1B lC50” value in assay [1] (setting [3]) came out at 8.23 ± 0.91 µM.

In the case of `Cc1ccc(C2=C[C@H]([C@@]3(O)C(=O)N(Cc4ccccc4)c4cccc(Br)c43)OC2=O)cc1` [6ac], the “PTP1B lC50” value in assay [1] (setting [3]) worked out at 9.13 ± 0.62 µM.

Regarding `Cc1ccc(C2=C[C@H]([C@@]3(O)C(=O)N(Cc4ccccc4)c4ccccc43)OC2=O)cc1` [6ab], the IC50 in assay [1] (setting [4]) turned out to be 6.68 ± 0.88 µM.

Take `O=C1O[C@@H]([C@@]2(O)C(=O)N(Cc3ccccc3)c3cccc(Cl)c32)C=C1c1ccccc1` [6d]: the IC50 is 10 to 30 µM in assay [1] and 17.8 ± 1.2 µM in assay [1] (setting [5]).

As for `O=C1O[C@@H]([C@@]2(O)C(=O)Nc3ccccc32)C(c2ccccc2)=C1c1ccccc1` [6am], the “PTP1B lC50” value in assay [1] (setting [3]) worked out at 4.03 ± 0.45 µM.

In the case of `COc1ccc(C2=C[C@H]([C@@]3(O)C(=O)N(Cc4ccccc4)c4cccc(Br)c43)OC2=O)cc1OC` [6ai], in assay [1] (setting [3]), the “PTP1B lC50” value is 22.65 ± 0.75 µM.

With `O=C1O[C@@H]([C@@]2(O)C(=O)N(Cc3ccccc3)c3cccc(I)c32)C=C1c1ccccc1` [6f], in assay [1] (setting [3]), the “PTP1B lC50” value came to 8.17 ± 1.06 µM.

Consider `O=C1O[C@@H]([C@@]2(O)C(=O)N(Cc3ccccc3)c3ccc(Cl)c(Cl)c32)C=C1c1ccccc1` [6i], for which the IC50 in assay [1] (setting [4]) came out at 3.02 ± 0.22 µM.

Turning to `CC1CCC(C(C)C)C(OC(=O)c2ccc(C3=C(c4ccccc4)C(=O)OC3C3(O)C(=O)Nc4ccccc43)cc2)C1` (stereo not drawn) [6au], the IC50 in assay [1] was 0.29 to 1.58 µM; in assay [1] (setting [5]), 1.56 ± 0.24 µM.

As for `COc1ccc2c(c1)[C@@](O)([C@H]1C=C(c3ccccc3)C(=O)O1)C(=O)N2Cc1ccccc1` [6l], the “PTP1B lC50” value in assay [1] (setting [3]) is 21.65 ± 1.48 µM.

In the case of `O=C1O[C@@H]([C@@]2(O)C(=O)N(Cc3ccccc3)c3cccc(Br)c32)C=C1c1ccccc1` [6e], in assay [1] (setting [4]), the IC50 was 2.1 ± 0.31 µM.

For the compound `O=C1O[C@@H]([C@@]2(O)C(=O)Nc3ccccc32)C=C1c1ccccc1` [6b], the “PTP1B lC50” value in assay [1] (setting [3]) came out at 6.93 ± 0.77 µM.

As to `O=C1O[C@@H]([C@@]2(O)C(=O)N(Cc3ccc(C(=O)NC45CC6CC(CC(C6)C4)C5)cc3)c3cccc(Br)c32)C=C1c1ccccc1` [6s], the “PTP1B lC50” value in assay [1] (setting [3]) was 2.11 ± 0.22 µM.

On to `O=C1O[C@H]([C@]2(O)C(=O)N(Cc3ccccc3)c3cccc(Br)c32)C=C1c1ccc2ccccc2c1` [(S, S)-3ak], for which the “synergy index = (IC50 IFNγ− – IC50 IFNγ+)/IC50 IFNγ+” value in assay [2] was found to be 3.49. The compound also showed an IC50 in assay [1] of 0.81 ± 0.1 µM. Also, the “potency relative to the enantiomer (R, R)-3ak” value in assay [1] (DiFMUP assay) stood at 3 fold. Further, in assay [1] (DiFMUP assay, values in text and figure), the “IC50 against PTP1B” value is “submicromolar”.

As for `O=C1O[C@@H]([C@@]2(O)C(=O)N(Cc3ccccc3)c3cccc(Br)c32)C=C1c1ccc2ccccc2c1` [(R, R)-3ak], the IC50 in assay [1] was 3.31 ± 0.2 µM.

On to `Cc1ccc2c(c1Br)[C@@](O)([C@H]1C=C(c3ccccc3)C(=O)O1)C(=O)N2Cc1ccccc1` [6g], for which the “PTP1B lC50” value in assay [1] (setting [3]) came to 8.13 ± 0.06 µM.

In the case of `COc1ccc(C2=C[C@H]([C@@]3(O)C(=O)N(Cc4ccccc4)c4ccccc43)OC2=O)cc1` [6ad], in assay [1] (setting [3]), the “PTP1B lC50” value was 7.82 ± 1.44 µM.

As for `Cc1ccc2c(c1)C(O)(C1C=C(c3ccccc3)C(=O)O1)C(=O)N2Cc1ccccc1` (stereo not drawn) [6k], in assay [1] (read-out: PTP1B lC50, DiFMUP assay at room temperature, positive control ABBV-CLS-484, negative control DMSO), the IC50 came out at 9.08 ± 0.12 µM.

For `COc1ccc(C2=C[C@H]([C@@]3(O)C(=O)N(Cc4ccccc4)c4cccc(Br)c43)OC2=O)cc1` [6ae], the “PTP1B lC50” value in assay [1] (setting [3]) was 11.17 ± 2.87 µM.

Consider `O=C1OC(C2(O)C(=O)N(Cc3ccccc3)c3cccc(Br)c32)C=C1c1ccc2c(c1)OCO2` (stereo not drawn) [6ah], for which the IC50 in assay [1] was 0.29 to 1.58 µM; in assay [1] (setting [5]), 0.92 ± 0.18 µM.

`O=C1O[C@@H]([C@@]2(O)C(=O)N(Cc3ccccc3)c3ccccc32)C=C1c1ccccc1` [6a]: the values for the IC50 in assay [1] and in assay [1] (setting [5]) were 10 to 30 µM and 29.7 ± 0.56 µM, respectively.
